These results are taken from patent US12227500B2, “Substituted pyrrolo[2,3-b]pyridines for suppressing toxic endoplasmic reticulum stress” (THE TRUSTEES OF COLUMBIA UNIVERSITY IN THE CITY OF NEW YORK, priority 2018, dated 2025).

Common to all, as to test: Radiolabeled ATP kinase assay, panel of 371 kinases (Table S6)
Format in all cases: biochemical

The target of assay [1] is T1, panel of 371 human kinases (Homo sapiens, UniProt O43318).
T1 construct: purchased Reaction Biology Corp
The following applies: TAK1; 0.1 μM; 10 μM ATP; read-out: % Enzyme Activity (relative to DMSO controls). The text has this:
(§1) ; FIG. 38C). […]. Further targeted analyses, such as genetic knock-down or knock-out, may be warranted to parse the role of these additional kinases in our model of neurodegeneration.

The target of assay [2] is T2, panel of 371 human kinases (Homo sapiens, UniProt O60674).
T2 construct: purchased Reaction Biology Corp
To be noted: JAK2; 0.1 μM; 10 μM ATP; read-out: % Enzyme Activity (relative to DMSO controls).
Description: as §1

In assay [3] the target is T3, panel of 371 human kinases (Homo sapiens, UniProt O75582).
T3 construct: purchased Reaction Biology Corp
To be noted: MSK1/RPS6KA5; 0.1 μM; 10 μM ATP; read-out: % Enzyme Activity (relative to DMSO controls).
Description: as §1

Assay [4] addresses T4, panel of 371 human kinases (Homo sapiens, UniProt P09619).
T4 construct: purchased Reaction Biology Corp
To be noted: PDGFRb; 0.1 μM; 10 μM ATP; read-out: % Enzyme Activity (relative to DMSO controls).
Description: as §1

Assay [5] addresses T5, panel of 371 human kinases (Homo sapiens, UniProt P12931).
T5 construct: purchased Reaction Biology Corp
To be noted: c-Src; 0.1 μM; 10 μM ATP; read-out: % Enzyme Activity (relative to DMSO controls).
Description: as §1

Assay [6] deals with T6, panel of 371 human kinases (Homo sapiens, UniProt P20794).
T6 construct: purchased Reaction Biology Corp
To be noted: MAK; 0.1 μM; 10 μM ATP; read-out: % Enzyme Activity (relative to DMSO controls).
Description: as §1

The target in assay [7] is T7, panel of 371 human kinases (Homo sapiens, UniProt P21802).
T7 construct: purchased Reaction Biology Corp
The following applies: FGFR2; 0.1 μM; 10 μM ATP; read-out: % Enzyme Activity (relative to DMSO controls).
Description: as §1

In assay [8] the target is T8, panel of 371 human kinases (Homo sapiens, UniProt P22612).
T8 construct: purchased Reaction Biology Corp
The following applies: PKAcg; 0.1 μM; 10 μM ATP; read-out: % Enzyme Activity (relative to DMSO controls).
Description: as §1

Assay [9] has as its target T9, panel of 371 human kinases (Homo sapiens, UniProt P29317).
T9 construct: purchased Reaction Biology Corp
The following applies: EPHA2; 0.1 μM; 10 μM ATP; read-out: % Enzyme Activity (relative to DMSO controls).
Description: as §1

For assay [10], the target named is T10, panel of 371 human kinases (Homo sapiens, UniProt P31749).
T10 construct: purchased Reaction Biology Corp
The following applies: AKT1; 0.1 μM; 10 μM ATP; read-out: % Enzyme Activity (relative to DMSO controls).
Description: as §1

Assay [11] addresses T11, panel of 371 human kinases (Homo sapiens, UniProt P49137).
T11 construct: purchased Reaction Biology Corp
To be noted: MAPKAPK2; 0.1 μM; 10 μM ATP; read-out: % Enzyme Activity (relative to DMSO controls).
Description: as §1

For assay [12], the target named is T12, panel of 371 human kinases (Homo sapiens, UniProt P51451).
T12 construct: purchased Reaction Biology Corp
The following applies: BLK; 0.1 μM; 10 μM ATP; read-out: % Enzyme Activity (relative to DMSO controls).
Description: as §1

The target in assay [13] is T13, panel of 371 human kinases (Homo sapiens, UniProt Q02779).
T13 construct: purchased Reaction Biology Corp
The following applies: MLK2/MAP3K10; 0.1 μM; 10 μM ATP; read-out: % Enzyme Activity (relative to DMSO controls).
Description: as §1

In assay [14] the target is T14, panel of 371 human kinases (Homo sapiens, UniProt Q05655).
T14 construct: purchased Reaction Biology Corp
The following applies: PKCd; 0.1 μM; 10 μM ATP; read-out: % Enzyme Activity (relative to DMSO controls).
Description: as §1

Assay [15] has as its target T15, panel of 371 human kinases (Homo sapiens, UniProt Q12866).
T15 construct: purchased Reaction Biology Corp
To be noted: c-MER; 0.1 μM; 10 μM ATP; read-out: % Enzyme Activity (relative to DMSO controls).
Description: as §1

For assay [16], the target named is T16, panel of 371 human kinases (Homo sapiens, UniProt Q13163).
T16 construct: purchased Reaction Biology Corp
The following applies: MEK5; 0.1 μM; 10 μM ATP; read-out: % Enzyme Activity (relative to DMSO controls).
Description: as §1

Assay [17] has as its target T17, panel of 371 human kinases (Homo sapiens, UniProt Q13557).
T17 construct: purchased Reaction Biology Corp
The following applies: CAMK2d; 0.1 μM; 10 μM ATP; read-out: % Enzyme Activity (relative to DMSO controls).
Description: as §1

The target of assay [18] is T18, panel of 371 human kinases (Homo sapiens, UniProt Q15349).
T18 construct: purchased Reaction Biology Corp
The following applies: RSK3; 0.1 μM; 10 μM ATP; read-out: % Enzyme Activity (relative to DMSO controls).
Description: as §1

In assay [19] the target is T19, panel of 371 human kinases (Homo sapiens, UniProt Q5TCY1).
T19 construct: purchased Reaction Biology Corp
To be noted: TTBK1; 0.1 μM; 10 μM ATP; read-out: % Enzyme Activity (relative to DMSO controls).
Description: as §1

In assay [20] the target is T20, panel of 371 human kinases (Homo sapiens, UniProt Q76MJ5).
T20 construct: purchased Reaction Biology Corp
The following applies: ERN2/IRE2; 0.1 μM; 10 μM ATP; read-out: % Enzyme Activity (relative to DMSO controls).
Description: as §1

Assay [21] has as its target T21, panel of 371 human kinases (Homo sapiens, UniProt Q8IYT8).
T21 construct: purchased Reaction Biology Corp
To be noted: ULK2; 0.1 μM; 10 μM ATP; read-out: % Enzyme Activity (relative to DMSO controls).
Description: as §1

In assay [22] the target is T22, panel of 371 human kinases (Homo sapiens, UniProt Q9UIK4).
T22 construct: purchased Reaction Biology Corp
The following applies: DAPK2; 0.1 μM; 10 μM ATP; read-out: % Enzyme Activity (relative to DMSO controls).
Description: as §1

Assay [23] addresses T23, panel of 371 human kinases (Homo sapiens, UniProt Q9Y2K2).
T23 construct: purchased Reaction Biology Corp
The following applies: SIK3; 0.1 μM; 10 μM ATP; read-out: % Enzyme Activity (relative to DMSO controls).
Description: as §1

Assay [24] has as its target T24, panel of 371 human kinases (Homo sapiens, UniProt Q9Y2U5).
T24 construct: purchased Reaction Biology Corp
The following applies: MEKK2; 0.1 μM; 10 μM ATP; read-out: % Enzyme Activity (relative to DMSO controls).
Description: as §1

T21 sequence (Q8IYT8 whole entry): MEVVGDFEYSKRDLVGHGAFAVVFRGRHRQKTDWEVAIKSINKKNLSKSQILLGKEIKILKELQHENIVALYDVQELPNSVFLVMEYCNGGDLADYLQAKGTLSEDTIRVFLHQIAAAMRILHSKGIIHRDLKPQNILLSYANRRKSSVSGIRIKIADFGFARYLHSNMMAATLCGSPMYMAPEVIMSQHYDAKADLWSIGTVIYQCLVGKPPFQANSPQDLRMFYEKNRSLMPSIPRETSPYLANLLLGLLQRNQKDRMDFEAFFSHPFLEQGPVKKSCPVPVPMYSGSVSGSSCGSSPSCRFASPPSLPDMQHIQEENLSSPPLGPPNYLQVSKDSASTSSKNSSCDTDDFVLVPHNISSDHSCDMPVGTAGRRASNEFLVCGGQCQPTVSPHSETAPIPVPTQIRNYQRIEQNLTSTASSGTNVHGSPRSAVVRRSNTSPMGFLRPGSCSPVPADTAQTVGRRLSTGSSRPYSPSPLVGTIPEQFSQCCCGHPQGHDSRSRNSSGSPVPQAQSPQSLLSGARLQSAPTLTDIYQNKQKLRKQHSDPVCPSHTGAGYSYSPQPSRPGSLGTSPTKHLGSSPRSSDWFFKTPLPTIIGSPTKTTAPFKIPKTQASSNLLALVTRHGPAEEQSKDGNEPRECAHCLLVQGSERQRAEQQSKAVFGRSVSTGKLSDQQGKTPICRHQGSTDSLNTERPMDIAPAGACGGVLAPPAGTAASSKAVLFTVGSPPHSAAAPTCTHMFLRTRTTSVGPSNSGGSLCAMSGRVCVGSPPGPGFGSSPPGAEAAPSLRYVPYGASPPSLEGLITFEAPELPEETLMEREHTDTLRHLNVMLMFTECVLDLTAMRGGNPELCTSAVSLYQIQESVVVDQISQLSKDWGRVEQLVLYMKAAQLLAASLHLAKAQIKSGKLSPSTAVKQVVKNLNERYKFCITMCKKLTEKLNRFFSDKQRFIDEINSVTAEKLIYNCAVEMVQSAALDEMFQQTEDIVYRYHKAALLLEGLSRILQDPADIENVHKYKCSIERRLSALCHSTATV
T17 sequence (Q13557 whole entry): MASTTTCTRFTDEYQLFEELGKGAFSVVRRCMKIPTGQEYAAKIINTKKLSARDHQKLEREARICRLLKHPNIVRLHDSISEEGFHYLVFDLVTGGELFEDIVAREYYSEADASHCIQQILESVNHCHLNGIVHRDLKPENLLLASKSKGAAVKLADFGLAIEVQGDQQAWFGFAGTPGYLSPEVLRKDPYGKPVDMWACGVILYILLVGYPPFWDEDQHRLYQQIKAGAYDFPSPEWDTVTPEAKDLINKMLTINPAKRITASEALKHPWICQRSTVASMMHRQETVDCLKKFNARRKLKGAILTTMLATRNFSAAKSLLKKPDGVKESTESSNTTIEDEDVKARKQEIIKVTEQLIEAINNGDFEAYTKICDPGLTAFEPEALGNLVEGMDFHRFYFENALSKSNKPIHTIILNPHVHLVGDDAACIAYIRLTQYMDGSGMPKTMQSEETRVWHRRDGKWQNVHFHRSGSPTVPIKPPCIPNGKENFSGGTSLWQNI
T5 sequence (P12931 whole entry): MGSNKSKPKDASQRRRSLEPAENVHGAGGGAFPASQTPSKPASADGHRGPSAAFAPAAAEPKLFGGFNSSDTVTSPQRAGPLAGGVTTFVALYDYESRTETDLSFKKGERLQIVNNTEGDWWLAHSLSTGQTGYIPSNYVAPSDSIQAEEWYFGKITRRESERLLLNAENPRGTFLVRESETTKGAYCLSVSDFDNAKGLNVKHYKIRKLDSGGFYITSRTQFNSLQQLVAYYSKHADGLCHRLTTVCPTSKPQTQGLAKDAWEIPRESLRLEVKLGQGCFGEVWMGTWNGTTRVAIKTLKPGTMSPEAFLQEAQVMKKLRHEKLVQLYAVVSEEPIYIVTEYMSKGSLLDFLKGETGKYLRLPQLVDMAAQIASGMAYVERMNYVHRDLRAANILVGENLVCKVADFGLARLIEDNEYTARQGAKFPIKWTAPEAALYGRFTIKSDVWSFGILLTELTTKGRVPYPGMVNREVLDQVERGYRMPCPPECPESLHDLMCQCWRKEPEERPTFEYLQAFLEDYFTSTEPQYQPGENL
T8 sequence (P22612 whole entry): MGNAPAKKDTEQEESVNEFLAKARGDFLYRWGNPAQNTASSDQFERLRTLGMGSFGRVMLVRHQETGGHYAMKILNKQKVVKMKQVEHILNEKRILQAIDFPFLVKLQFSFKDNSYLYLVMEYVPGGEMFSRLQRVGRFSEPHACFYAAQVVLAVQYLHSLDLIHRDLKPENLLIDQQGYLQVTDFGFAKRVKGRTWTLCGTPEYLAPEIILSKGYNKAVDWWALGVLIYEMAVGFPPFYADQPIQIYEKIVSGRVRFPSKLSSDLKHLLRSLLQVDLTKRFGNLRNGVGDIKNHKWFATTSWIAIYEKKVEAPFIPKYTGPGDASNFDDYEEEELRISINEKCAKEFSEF
T13 sequence (Q02779 whole entry): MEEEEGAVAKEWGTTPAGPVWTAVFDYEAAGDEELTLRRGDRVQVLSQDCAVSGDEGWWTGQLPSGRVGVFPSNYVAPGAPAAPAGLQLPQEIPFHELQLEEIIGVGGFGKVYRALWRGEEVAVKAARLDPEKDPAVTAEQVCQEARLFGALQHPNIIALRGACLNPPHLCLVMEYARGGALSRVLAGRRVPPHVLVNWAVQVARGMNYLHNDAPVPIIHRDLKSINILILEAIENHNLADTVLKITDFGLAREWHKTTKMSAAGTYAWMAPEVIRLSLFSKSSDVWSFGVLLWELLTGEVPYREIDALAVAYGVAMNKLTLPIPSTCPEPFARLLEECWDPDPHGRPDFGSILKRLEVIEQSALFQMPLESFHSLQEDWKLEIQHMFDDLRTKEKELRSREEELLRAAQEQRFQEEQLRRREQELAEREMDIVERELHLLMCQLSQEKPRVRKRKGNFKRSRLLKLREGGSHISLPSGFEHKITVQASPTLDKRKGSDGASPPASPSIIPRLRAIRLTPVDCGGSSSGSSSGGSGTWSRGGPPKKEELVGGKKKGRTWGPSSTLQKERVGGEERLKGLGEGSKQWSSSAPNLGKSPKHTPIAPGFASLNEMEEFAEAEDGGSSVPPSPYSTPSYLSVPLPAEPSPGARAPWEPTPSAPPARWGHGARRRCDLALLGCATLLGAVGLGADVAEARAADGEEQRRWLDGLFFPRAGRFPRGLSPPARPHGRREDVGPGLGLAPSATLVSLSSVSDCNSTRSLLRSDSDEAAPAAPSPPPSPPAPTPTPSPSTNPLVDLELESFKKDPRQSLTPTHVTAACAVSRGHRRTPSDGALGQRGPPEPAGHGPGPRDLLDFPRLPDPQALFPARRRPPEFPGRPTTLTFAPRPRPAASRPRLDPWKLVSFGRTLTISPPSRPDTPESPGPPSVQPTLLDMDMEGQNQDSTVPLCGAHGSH
T18 sequence (Q15349 whole entry): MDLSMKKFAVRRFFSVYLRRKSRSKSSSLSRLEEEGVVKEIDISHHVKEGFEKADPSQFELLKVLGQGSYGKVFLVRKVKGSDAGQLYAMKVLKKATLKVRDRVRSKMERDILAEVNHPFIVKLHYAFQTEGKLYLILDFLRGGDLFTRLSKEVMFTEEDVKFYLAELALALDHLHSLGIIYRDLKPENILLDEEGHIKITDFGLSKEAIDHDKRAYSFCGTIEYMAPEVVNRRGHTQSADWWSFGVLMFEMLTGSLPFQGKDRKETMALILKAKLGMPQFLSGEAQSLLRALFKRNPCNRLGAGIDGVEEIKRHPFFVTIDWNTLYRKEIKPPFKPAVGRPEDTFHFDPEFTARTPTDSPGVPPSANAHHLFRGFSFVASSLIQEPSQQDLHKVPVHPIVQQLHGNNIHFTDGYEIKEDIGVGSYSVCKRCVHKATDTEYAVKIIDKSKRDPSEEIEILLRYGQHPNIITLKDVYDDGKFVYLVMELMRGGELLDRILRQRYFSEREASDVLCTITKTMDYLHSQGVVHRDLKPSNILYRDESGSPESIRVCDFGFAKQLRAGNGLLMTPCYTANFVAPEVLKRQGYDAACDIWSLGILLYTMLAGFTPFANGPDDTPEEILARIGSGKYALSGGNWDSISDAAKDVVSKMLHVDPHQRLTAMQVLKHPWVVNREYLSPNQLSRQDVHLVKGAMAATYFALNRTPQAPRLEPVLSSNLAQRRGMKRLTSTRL
T20 sequence (Q76MJ5 35-926): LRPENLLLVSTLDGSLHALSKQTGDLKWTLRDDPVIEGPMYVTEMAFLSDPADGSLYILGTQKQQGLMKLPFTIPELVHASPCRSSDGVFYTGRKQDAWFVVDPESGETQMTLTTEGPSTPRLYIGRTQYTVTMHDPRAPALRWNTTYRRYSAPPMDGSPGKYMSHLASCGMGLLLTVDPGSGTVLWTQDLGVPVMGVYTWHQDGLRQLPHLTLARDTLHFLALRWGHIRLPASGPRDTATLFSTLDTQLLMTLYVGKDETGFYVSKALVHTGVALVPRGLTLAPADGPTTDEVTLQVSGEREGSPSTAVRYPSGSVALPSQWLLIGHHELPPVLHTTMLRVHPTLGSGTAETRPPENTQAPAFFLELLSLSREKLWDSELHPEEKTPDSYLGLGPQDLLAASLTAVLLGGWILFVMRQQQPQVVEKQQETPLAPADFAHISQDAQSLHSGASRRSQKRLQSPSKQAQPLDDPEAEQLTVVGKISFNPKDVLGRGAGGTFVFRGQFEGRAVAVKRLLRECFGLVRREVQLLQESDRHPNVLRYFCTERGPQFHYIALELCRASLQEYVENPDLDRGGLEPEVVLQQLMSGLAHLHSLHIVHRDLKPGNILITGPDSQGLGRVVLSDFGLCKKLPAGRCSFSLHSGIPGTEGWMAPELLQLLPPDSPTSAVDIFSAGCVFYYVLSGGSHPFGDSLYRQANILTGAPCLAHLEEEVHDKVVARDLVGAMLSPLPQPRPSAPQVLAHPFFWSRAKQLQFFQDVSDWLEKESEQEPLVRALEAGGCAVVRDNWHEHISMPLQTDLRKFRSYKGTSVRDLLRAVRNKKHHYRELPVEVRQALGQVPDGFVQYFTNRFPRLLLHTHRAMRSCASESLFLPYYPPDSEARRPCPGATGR

For `CN1CCN(Cc2ccc(-c3cnc4[nH]cc(-c5ccc6[nH]ccc6c5)c4c3)cc2)CC1` [Compound 1, 3-(1H-Indol-5-yl)-5-(4-((4-methylpiperazin-1-yl)methyl)phenyl)-1H-pyrrolo[2,3-b]pyridine, reference compound], the remaining activity at 0.1 µM in assay [1] amounted to 84.6%; in [2], 90.2%; in [3], 101%; in assay [4], 94.2%; in [5], 86%; in assay [6], 101%. Besides, the remaining activity at 0.1 µM in [7] was 79.9%; in assay [8] it was 102%; in [9], 93.6%; in assay [10] it was 97%; in assay [11], 96.9%; in assay [12], 99.5%. Besides, the remaining activity at 0.1 µM came to 84.1% in assay [13]; 92.3% in assay [14]; 81.2% in [15]; 97.6% in assay [16]; 97% in assay [17]; 61.7% in assay [18]. Also, the remaining activity at 0.1 µM was 111% in assay [19]; 92.3% in assay [20]; 80.4% in [21]; 118% in assay [22]; 75.5% in [23]; 102% in [24].

With `OCCN1CCN(Cc2ccc(-c3cnc4[nH]cc(-c5cccc(Cl)c5)c4c3)cc2)CC1` [Compound 12k, 2-(4-(4-(3-(3-Chlorophenyl)-1H-pyrrolo[2,3-b]pyridin-5-yl)benzyl)piperazin-1-yl)ethan-1-ol], the remaining activity at 0.1 µM was 77.4% in assay [1]; 93% in assay [2]; 98.4% in assay [3]; 96.3% in assay [4]; 88.1% in assay [5]; 87.5% in [6]. For the same molecule, the remaining activity at 0.1 µM in [7] came to 89.5%; in [8], 99.4%; in assay [9], 92.3%; in assay [10], 101%; in assay [11], 99.6%; in [12], 101%. Besides, the remaining activity at 0.1 µM came to 73.1% in [13]; 102% in assay [14]; 75.1% in [15]; 85.6% in assay [16]; 81.3% in assay [17]; 45.3% in assay [18]. Also, the remaining activity at 0.1 µM worked out at 106% in assay [19]; 64.3% in assay [20]; 36% in assay [21]; 105% in assay [22]; 92.3% in assay [23]; 93.3% in assay [24].
